Source: patent US5434256A, “Diamine platinum complexes as antitumor agents” (priority 1994, dated 1995)

What was measured:
L1210/0 cells [1] = assay: Modified MTT cytotoxicity assay, murine leukemia L1210/0 (Example 2, Table 3); format: cell-based; conditions: L1210/0; MTT, continuous exposure 5 days
Method: (§1) Cytotoxicity was determined by a modified MTT assay. Briefly, the compounds were dissolved in normal saline and sterilized through 0.22 μm disc filters. […] Aliquots (20 μl ) of this, and serially diluted drug solutions, and of complete media (80 μl) were pipetted in triplicate into 96-well microtiler plates immediately before addition of cells. Cells in exponential phase of growth were trypsinized for 3 min, where necessary to dislodge adherent 2780 cells, collected and counted by Coulter counter (Coulter Electronics, Hialeah, Fla.). After diluting the L1210/0 (2,000/ml) and A2780 (5,000/ml) cells to appropriate concentrations, 100 μl aliquots of these cell suspensions were added to each of the wells. […] After a 3 hour incubation, the medium was removed and replaced by 50 μl of 100% DMSO to dissolve MTT formazan crystals. Plates were then agitated on a plate shaker for 5 min, and absorbances were measured at 570 nm with a multiwell scanning spectrophotometer (Dynatech MR600, Chantilly, Va.).

A2780 cells = assay: Modified MTT cytotoxicity assay, human ovarian A2780 (Example 2, Table 3); format: cell-based; conditions: continuous exposure (5 days in table footnote; 7 days in text)
Method: as §1

L1210/DDP cells = assay: MTT cytotoxicity, cisplatin-resistant L1210/DDP (Example 5, Table 10); format: cell-based, murine; conditions: 72 hr (3 days) continuous exposure
L1210/DACH cells = assay: MTT cytotoxicity, tetraplatin-resistant L1210/DACH (Example 5, Table 10); format: cell-based, murine; conditions: 72 hr (3 days) continuous exposure
L1210/0 cells [2] = assay: MTT cytotoxicity, L1210/0 (Example 5, Table 10); format: cell-based, murine; conditions: 72 hr (3 days) continuous exposure

Row | SMILES | IC50 (L1210/0 cells [1]) [nM] | IC50 (A2780 cells) [nM] | IC50 (L1210/DDP cells) [nM] | IC50 (L1210/DACH cells) [nM] | IC50 (L1210/0 cells [2]) [nM]
1 | NC1CCC(N)CC1.O=C1[O][Pt]([Cl])([Cl])[O]C(=O)C12CCC2 [Compound 9, Cis-1,4-diaminocyclohexane-1,1-cyclobutanedicarboxylato-dichloroplatinum(IV)] | 140 | 50 | – | – | –
2 | NC1CCC(N)CC1.O=C1[O][Pt]([Cl])([Cl])[O]C1=O [Compound 10, Cis-1,4-diaminocyclohexaneoxalatodichloroplatinum(IV)] | 200 | 51 | – | – | –
3 | CC(=O)[O][Pt]([Cl])([Cl])[O]C(C)=O.NC1CCC(N)CC1 [Compound 11, Cis-1,4-diamtinocyclohexanedichlorodiacetatoplatinum (IV)] | – | 45 | – | – | –
4 | CCC(=O)[O][Pt]([Cl])([Cl])[O]C(=O)CC.N[C@@H]1CCCC[C@H]1N [Compound 16, (R,R-1,2-DACH)PtCl2 trans-(Propionate)2] | – | – | 560 | 550 | 110
5 | CCCC(=O)[O][Pt]([Cl])([Cl])[O]C(=O)CCC.N[C@@H]1CCCC[C@H]1N [Compound 17, (R,R-1,2-diaminocyclohexane)PtCl2 trans(butyrate)2] | – | – | 220 | 170 | 40
6 | CCCCC(=O)[O][Pt]([Cl])([Cl])[O]C(=O)CCCC.N[C@@H]1CCCC[C@H]1N [Compound 18, (R,R-1,2-DACH)PtCl2 trans(pentanoate)2] | – | – | 270 | 240 | 40
7 | CCCCCC(=O)[O][Pt]1([Cl])([Cl])([O]C(=O)CCCCC)[NH]C2CCCCC2[NH]1 [Compound 19, (R,R-1,2-DACH)PtCl2 trans-(hexanoate)2] | – | – | 230 | 1500 | 40
8 | CCCCCCC(=O)[O][Pt]([Cl])([Cl])[O]C(=O)CCCCCC.N[C@@H]1CCCC[C@H]1N [Compound 20, (R,R-1,2-DACH)PtCl2trans(heptanoate)2] | – | – | 700 | 2300 | 150
9 | CCC(=O)[O][Pt]([Cl])([Cl])[O]C(=O)CC.NC1CCC(N)CC1 [Compound 21, (cis-1,4-DACH)PtCl2 trans-(propionate)2] | – | – | 500 | 40 | 5.5
10 | CCCC(=O)[O][Pt]([Cl])([Cl])[O]C(=O)CCC.NC1CCC(N)CC1 [Compound 22, (cis-1,4-DACH)PtCl2 trans-(butyrate)2] | – | – | 130 | 20 | 1.2
